Measurements: patent US20230181598A1, “FORMULATIONS AND METHODS OF TREATING COVID-19 AND PREVENTING INFECTION WITH SARS-CoV-2” (priority 2020, published 2023)
Converted amounts (≈) assume the structure as drawn. “And” between values parts separate entries of the source, which are not always exact repeats. Equal values may be shown once. Read-outs that look alike come from different tables or passages of the source.

Legend:
[1] = cited from earlier work
[2] = system: SARS-CoV-2 (strain USA-WA1/2020); assay: microbe, parasite or virus in culture; assay type: cell-based; conditions: for Average Log10 CCID50 virus per 0.2 mL: average of duplicate inserts; for Log10 Reduction in virus titer (CCID50) vs virus control / Log10 CCID50 virus per 0.2 mL: dNHBE cells
[3] = 0.1 μM, single insert, day 5 after infection

Structure (SMILES): CCOC(=O)C1=C(COCCN)NC(C)=C(C(=O)OC)C1c1ccccc1Cl (racemic) [Amlodipine besylate, 3-Ethyl-5-methyl (±)-2-[(2-aminoethoxy)methyl]4-(2-chlorophenyl)-1,4-dihydro-6-methyl-3,5-pyridinedicarboxylate, monobenzenesulphonate]
- solubility in ethanol ([1]; ethanol): sparingly soluble
- solubility in water ([1]; water): slightly soluble

Structure (SMILES): CCOC(=O)C1=C(COCCN)NC(C)=C(C(=O)OC)C1c1ccccc1Cl (centres unmarked) [Amlodipine]
- Average Log10 CCID50 virus per 0.2 mL ([2]; 0.1 μM, day 5): 3.6 Log10 CCID50 per 0.2 mL
- Log10 Reduction in virus titer (CCID50) vs virus control ([2]; 0.1 μM, day 5): 0.7 Log10
- Log10 Reduction in virus titer (CCID50) vs virus control ([2]; 0.1 μM, day 5, listed as amlodipine): ~1 Log10
- Log10 CCID50 virus per 0.2 mL [2, 3]: 3.7 Log10 CCID50 per 0.2 mL and 3.5 Log10 CCID50 per 0.2 mL

Structure (SMILES): CC#C[C@]1(O)CC[C@H]2[C@@H]3CCC4=CC(=O)CCC4=C3[C@@H](c3ccc(N(C)C)cc3)C[C@@]21C [Mifepristone, 11β-(4-dimethylaminophenyl)-17β-hydroxy-17α-(1-propynyl)-estra-4,9-dien-3-one]
- Average Log10 CCID50 virus per 0.2 mL ([2]; 5 μM, day 5): 3.5 Log10 CCID50 per 0.2 mL
- Log10 Reduction in virus titer (CCID50) vs virus control ([2]; 5 μM, day 5): 0.8 Log10
- Log10 Reduction in virus titer (CCID50) vs virus control ([2]; 5 μM, day 5, listed as mifepristone): ~1 Log10
- solubility ([1]; acidic media, pH 1.5): ~25 mg/mL (≈ 58.2 mM)
- solubility ([1]; pH values above 2.5): less than 1 mg/mL

Structure (SMILES): CCC(CC)COC(=O)[C@H](C)N[P@](=O)(OC[C@H]1O[C@@](C#N)(c2ccc3c(N)ncnn23)[C@H](O)[C@@H]1O)Oc1ccccc1 [Remdesivir]
- Log10 CCID50 virus per 0.2 mL ([2]; 0.001 μM, day 5): 4.0 Log10 CCID50 per 0.2 mL
- Log10 CCID50 virus per 0.2 mL ([2]; 0.01 μM, day 5): 3.3 Log10 CCID50 per 0.2 mL
- Log10 CCID50 virus per 0.2 mL [2, 3]: 2.7 Log10 CCID50 per 0.2 mL
- Log10 CCID50 virus per 0.2 mL ([2]; 1.0 μM, day 5): 2.0 Log10 CCID50 per 0.2 mL
- EC90 ([2]; Severe acute respiratory syndrome coronavirus 2, Vero 76): 9 nM
- EC90 ([2]; Severe acute respiratory syndrome coronavirus 2, Vero 76, 120 h, read-out: EC90 (concentration to reduce virus yield by 1 log10, regression analysis) (converted)): 9 nM
